In US7902361B2, “Pyrimidin-4-yl-3, 4-thione compounds and their use in therapy” (Cyclacel Limited, priority 2003, dated 2011) one finds Ki and IC50 data, which are given here for 14 compounds.

Holding throughout (format): biochemical
One assay has as its target CDK1/cyclin B (Homo sapiens, UniProt P06493). Description: Kinase assay CDK1/cyclin B (radioactive phosphate incorporation). Particulars: Ki calculated (Cheng-Prusoff) from experimentally determined IC50 and Km,ATP; read-out: Kinase Inhibition Ki CDK1 - cyclin B. On the procedure:
(§1) The compounds from the examples above were investigated for their ability to inhibit the enzymatic activity of various protein kinases. This was achieved by measurement of incorporation of radioactive phosphate from ATP into appropriate polypeptide substrates. Recombinant protein kinases and kinase complexes were produced or obtained commercially. Assays were performed using 96-well plates and appropriate assay buffers (typically 25 mM β-glycerophosphate, 20 mM MOPS, 5 mM EGTA, 1 mM DTT, 1 mM […], pH 7.4), into which were added 2-4 μg of active enzyme with appropriate substrates. […] Reactions were stopped on ice, followed by filtration through p81 filterplates or GF/C filterplates (Whatman Polyfiltronics, Kent, UK). After washing 3 times with 75 mM aq orthophosphoric acid, plates were dried, scintillant added and incorporated radioactivity measured in a scintillation counter (TopCount, Packard Instruments, Pangbourne, Berks, UK). Compounds for kinase assay were made up as 10 mM stocks in DMSO and diluted into 10% DMSO in assay buffer.

The target of the next assay is T1, aurora A (Homo sapiens, UniProt O14965).
T1 sequence (O14965 1-403): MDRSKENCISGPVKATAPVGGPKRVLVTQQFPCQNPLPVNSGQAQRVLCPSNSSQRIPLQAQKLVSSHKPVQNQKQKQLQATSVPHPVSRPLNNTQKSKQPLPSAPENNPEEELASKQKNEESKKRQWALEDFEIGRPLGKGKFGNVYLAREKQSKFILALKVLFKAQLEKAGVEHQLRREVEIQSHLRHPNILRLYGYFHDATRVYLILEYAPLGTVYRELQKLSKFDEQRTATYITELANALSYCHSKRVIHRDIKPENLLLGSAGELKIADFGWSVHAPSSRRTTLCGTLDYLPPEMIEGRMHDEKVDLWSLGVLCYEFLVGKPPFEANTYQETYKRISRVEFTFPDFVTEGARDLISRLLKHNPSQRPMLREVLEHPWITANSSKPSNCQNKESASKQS
Description: Kinase assay aurora A. The conditions noted are these: Ki calculated (Cheng-Prusoff) from experimentally determined IC50 and Km,ATP; read-out: Kinase Inhibition Ki Aurora A. On the procedure: as §1

For another assay, the target named is CDK2/cyclin E (Homo sapiens, UniProt P24941). Description: Kinase assay CDK2/cyclin E. Particulars: Ki calculated (Cheng-Prusoff) from experimentally determined IC50 and Km,ATP; read-out: Kinase Inhibition Ki CDK2 - cyclin E. As to the method:
as §1

For a further assay, the target named is CDK4/cyclin D1 (Homo sapiens, UniProt P11802). Description: Kinase assay CDK4/cyclin D1. The conditions noted are these: Ki calculated (Cheng-Prusoff) from experimentally determined IC50 and Km,ATP; read-out: Kinase Inhibition Ki CDK4 - cyclin D1. On the procedure:
(§2) The compounds from the examples above were investigated for their ability to inhibit the enzymatic activity of various protein kinases. This was achieved by measurement of incorporation of radioactive phosphate from ATP into appropriate polypeptide substrates. Recombinant protein kinases and kinase complexes were produced or obtained commercially. Assays were performed using 96-well plates and appropriate assay buffers (typically 25 mM β-glycerophosphate, 20 mM MOPS, 5 mM EGTA, 1 mM DTT, 1 mM […], pH 7.4), into which were added 2-4 μg of active enzyme with appropriate substrates. The reactions were initiated by addition of Mg/ATP mix (15 mM MgCl2+100 μM ATP with 30-50 kBq per well of [γ-^32P]-ATP) and mixtures incubated as required at 30° C. Reactions were stopped on ice, followed by filtration through p81 filterplates or GF/C filterplates (Whatman Polyfiltronics, Kent, UK). After washing 3 times with 75 mM aq orthophosphoric acid, plates were dried, scintillant added and incorporated radioactivity measured in a scintillation counter (TopCount, Packard Instruments, Pangbourne, Berks, UK). Compounds for kinase assay were made up as 10 mM stocks in DMSO and diluted into 10% DMSO in assay buffer.

The next assay concerns the target CDK2/cyclin A (Homo sapiens, UniProt P24941). In words: Kinase assay CDK2/cyclin A. The conditions noted are these: Ki calculated (Cheng-Prusoff) from experimentally determined IC50 and Km,ATP; read-out: Kinase Inhibition Ki CDK2 - cyclin A. As to the method:
as §1

The target of a further assay is CDK7/cyclin H (Homo sapiens, UniProt P50613). In words: Kinase assay CDK7/cyclin H. Particulars: Ki calculated (Cheng-Prusoff) from experimentally determined IC50 and Km,ATP; read-out: Kinase Inhibition Ki CDK7 - cyclin H. As to the method: as §2
Chain of CDK7/cyclin H (P50613 whole entry, species assumed): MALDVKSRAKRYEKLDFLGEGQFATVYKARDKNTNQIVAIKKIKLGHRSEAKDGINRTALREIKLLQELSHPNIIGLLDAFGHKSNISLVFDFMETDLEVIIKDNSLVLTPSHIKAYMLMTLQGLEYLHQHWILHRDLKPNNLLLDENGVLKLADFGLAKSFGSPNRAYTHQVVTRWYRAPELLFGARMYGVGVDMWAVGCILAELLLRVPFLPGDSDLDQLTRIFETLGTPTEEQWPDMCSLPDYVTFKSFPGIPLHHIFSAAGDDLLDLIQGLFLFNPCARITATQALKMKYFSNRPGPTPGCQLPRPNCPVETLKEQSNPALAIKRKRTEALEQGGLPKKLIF
Chain of CDK7/cyclin H (P51946 whole entry partner, species assumed): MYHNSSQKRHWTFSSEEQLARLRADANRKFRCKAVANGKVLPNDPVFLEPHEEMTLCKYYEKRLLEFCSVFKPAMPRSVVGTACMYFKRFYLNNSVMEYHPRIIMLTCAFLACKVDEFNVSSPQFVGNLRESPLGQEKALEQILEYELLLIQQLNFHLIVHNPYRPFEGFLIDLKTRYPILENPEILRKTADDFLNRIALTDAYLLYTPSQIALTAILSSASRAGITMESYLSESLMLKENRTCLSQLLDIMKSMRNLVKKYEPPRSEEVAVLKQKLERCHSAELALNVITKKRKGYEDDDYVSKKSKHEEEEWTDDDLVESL
A further assay concerns the target CDK9/cyclin T1 (Homo sapiens, UniProt P50750). In words: Kinase assay CDK9/cyclin T1. Particulars: Ki calculated (Cheng-Prusoff) from experimentally determined IC50 and Km,ATP; read-out: Kinase Inhibition Ki CDK9 - cyclin T1. As to the method: as §2
The next assay addresses T2, GSK3β (Homo sapiens, UniProt P49841).
T2 construct: purchased New England Biolabs
In words: GSK3β in vitro kinase assay. The conditions noted are these: recombinant human GSK3β, 100 μM ATP. As to the method: Both isoforms of GSK3 (α and β) are involved in the regulation of glycogen synthase activity—key enzyme in the glycogen metabolism.
A 10-point titration was set up to determine the IC50 values of selected example compounds against GSK3β. Assays were performed using 96-well microtiter plates with a final volume of 25 μL per well. Each assay contained 1.5 units of GSK3β(New England Biolabs), 200 μM CREB phosphopeptide ([…]pSYR, Alta Biosciences), 20 mM Tris HCl pH7.5, 5 mM DTT, 15 mM MgCl2 supplemented with 100 μM ATP and 0.5 μCi of [γ-^32P] ATP plus or minus inhibitor in 2% DMSO. Assays were carried out for 30 minutes at 30° C. before stopping the reaction by the addition of an equal volume of 75 mM aqueous phosphoric acid. Samples were then spotted onto a p81 filterplate (Whatman) and a vacuum was applied. Wells were washed 3 times with 200 μL of dilute aqueous phosphoric acid before the addition of 50 μL Microscint 40 per well. Incorporation of radioactivity was determined on a Topcount microplate scintillation counter (Packard).

Molecules are shown by their SMILES.

Chain of CDK1/cyclin B (P06493 whole entry, species assumed): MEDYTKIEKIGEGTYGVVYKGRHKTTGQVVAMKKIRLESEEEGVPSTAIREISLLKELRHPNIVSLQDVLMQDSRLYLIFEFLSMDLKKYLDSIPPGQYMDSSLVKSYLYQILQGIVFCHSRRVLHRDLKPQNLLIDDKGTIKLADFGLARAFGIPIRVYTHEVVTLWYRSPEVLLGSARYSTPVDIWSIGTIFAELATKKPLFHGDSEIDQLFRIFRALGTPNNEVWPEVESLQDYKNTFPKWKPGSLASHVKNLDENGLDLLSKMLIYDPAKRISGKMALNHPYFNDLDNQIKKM
Chain of CDK1/cyclin B (P14635 whole entry partner, species assumed): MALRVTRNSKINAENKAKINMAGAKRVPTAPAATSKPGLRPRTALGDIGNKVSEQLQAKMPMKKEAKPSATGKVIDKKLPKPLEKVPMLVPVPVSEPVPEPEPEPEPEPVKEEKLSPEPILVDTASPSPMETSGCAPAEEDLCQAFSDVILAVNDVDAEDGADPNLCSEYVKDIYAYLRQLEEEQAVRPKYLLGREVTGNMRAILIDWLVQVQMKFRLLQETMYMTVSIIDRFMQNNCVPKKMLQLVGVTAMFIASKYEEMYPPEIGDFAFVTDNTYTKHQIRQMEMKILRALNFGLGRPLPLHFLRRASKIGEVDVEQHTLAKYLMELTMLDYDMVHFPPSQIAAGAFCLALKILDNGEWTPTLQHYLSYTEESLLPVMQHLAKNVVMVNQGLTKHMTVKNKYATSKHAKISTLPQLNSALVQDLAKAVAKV
Chain of CDK9/cyclin T1 (P50750 whole entry, species assumed): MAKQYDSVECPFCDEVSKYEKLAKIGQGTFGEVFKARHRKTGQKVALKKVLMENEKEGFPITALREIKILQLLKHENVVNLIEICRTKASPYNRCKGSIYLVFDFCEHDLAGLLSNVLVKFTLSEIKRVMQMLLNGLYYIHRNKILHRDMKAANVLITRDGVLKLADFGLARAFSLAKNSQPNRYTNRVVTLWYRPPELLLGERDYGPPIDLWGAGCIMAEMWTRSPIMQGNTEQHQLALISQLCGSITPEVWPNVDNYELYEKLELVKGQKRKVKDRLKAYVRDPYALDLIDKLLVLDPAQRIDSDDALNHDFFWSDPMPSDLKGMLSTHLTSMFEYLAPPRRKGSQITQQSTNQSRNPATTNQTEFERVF
Chain of CDK9/cyclin T1 (O60563 whole entry partner, species assumed): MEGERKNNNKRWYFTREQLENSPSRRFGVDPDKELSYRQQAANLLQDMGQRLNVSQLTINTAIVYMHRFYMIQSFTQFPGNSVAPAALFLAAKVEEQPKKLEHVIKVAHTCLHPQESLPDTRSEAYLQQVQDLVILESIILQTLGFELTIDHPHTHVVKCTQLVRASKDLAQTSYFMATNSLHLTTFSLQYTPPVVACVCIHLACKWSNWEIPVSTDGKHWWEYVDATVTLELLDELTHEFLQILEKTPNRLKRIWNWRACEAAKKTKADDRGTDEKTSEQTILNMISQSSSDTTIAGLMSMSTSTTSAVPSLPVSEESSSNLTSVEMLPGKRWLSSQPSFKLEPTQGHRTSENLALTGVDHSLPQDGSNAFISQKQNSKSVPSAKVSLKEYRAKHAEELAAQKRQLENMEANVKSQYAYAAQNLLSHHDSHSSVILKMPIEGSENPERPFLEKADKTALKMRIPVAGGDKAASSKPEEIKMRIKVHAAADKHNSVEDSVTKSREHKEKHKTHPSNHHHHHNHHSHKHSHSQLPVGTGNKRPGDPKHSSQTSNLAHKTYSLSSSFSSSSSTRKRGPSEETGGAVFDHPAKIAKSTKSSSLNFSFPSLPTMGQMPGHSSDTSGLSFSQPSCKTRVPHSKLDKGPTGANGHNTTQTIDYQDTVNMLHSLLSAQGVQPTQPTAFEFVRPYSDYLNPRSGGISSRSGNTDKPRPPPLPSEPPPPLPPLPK
Chain of CDK4/cyclin D1 (P11802 whole entry, species assumed): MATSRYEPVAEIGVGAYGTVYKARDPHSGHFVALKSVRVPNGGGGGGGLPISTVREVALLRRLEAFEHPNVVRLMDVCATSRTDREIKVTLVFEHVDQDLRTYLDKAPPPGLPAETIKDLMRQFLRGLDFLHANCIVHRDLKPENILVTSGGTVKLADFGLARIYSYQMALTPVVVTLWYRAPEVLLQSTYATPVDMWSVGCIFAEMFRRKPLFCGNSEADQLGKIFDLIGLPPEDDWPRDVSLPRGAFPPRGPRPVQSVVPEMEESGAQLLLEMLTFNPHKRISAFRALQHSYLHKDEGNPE
Chain of CDK4/cyclin D1 (P24385 whole entry partner, species assumed): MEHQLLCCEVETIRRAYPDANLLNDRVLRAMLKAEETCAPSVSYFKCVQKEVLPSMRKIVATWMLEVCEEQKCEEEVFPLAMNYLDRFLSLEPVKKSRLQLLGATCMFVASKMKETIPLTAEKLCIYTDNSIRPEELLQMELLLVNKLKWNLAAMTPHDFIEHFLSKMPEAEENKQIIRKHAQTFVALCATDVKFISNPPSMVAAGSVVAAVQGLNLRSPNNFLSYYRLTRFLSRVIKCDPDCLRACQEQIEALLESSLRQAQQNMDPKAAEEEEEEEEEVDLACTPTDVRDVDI
T2 sequence (P49841 whole entry): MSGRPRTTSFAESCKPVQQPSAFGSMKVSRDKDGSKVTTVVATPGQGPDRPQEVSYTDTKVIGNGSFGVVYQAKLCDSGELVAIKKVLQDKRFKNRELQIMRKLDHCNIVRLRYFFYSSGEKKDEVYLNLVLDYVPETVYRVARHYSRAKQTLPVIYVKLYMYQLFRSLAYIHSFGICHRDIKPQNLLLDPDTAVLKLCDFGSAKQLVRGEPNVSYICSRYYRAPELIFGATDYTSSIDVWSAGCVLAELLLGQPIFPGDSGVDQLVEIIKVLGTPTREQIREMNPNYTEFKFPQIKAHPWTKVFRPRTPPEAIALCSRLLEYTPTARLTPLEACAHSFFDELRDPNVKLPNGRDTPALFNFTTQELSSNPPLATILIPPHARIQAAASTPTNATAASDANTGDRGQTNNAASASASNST

What is called Ki is a dissociation constant, usually derived from enzyme kinetics or from competition with a known ligand. Consider `CCn1c(C)c(-c2ccnc(Nc3ccc([N+](=O)[O-])cc3)n2)sc1=O` [Compound 52, 3-Ethyl-4-methyl-5-[2-(4-nitro-phenylamino)-pyrimidin-4-yl]-3H-thiazol-2-one], for which the Ki on CDK1/cyclin B was 730 nM; on aurora A, 25 nM; on CDK2/cyclin E it was 77 nM; on CDK4/cyclin D1, 1200 nM; at CDK2/cyclin A, 160 nM; on CDK7/cyclin H, 70 nM. Besides, the Ki at CDK9/cyclin T1 is 16 nM.

For the compound `Cc1c(-c2ccnc(Nc3ccc(N(C)C)c([N+](=O)[O-])c3)n2)sc(=O)n1C` [Compound 22, 5-[2-(4-Dimethylamino-3-nitro-phenylamino)-pyrimidin-4-yl]-3,4-dimethyl-3H-thiazol-2-one], the Ki at CDK1/cyclin B was 82 nM; on aurora A it was 110 nM; on CDK2/cyclin E, 53 nM; on CDK4/cyclin D1, 1300 nM; on CDK2/cyclin A, 0.5 nM; on CDK7/cyclin H it was 1.9 nM. In addition, on CDK9/cyclin T1, the Ki is 7.2 nM.

The IC50 is the concentration at which inhibition is half-maximal. Turning to `Cc1cc(Nc2nccc(-c3sc(=O)n(C)c3C)n2)cnc1Cl` [Compound 81, 5-[2-(6-Chloro-5-methyl-pyridin-3-ylamino)-pyrimidin-4-yl]-3,4-dimethyl-3H-thiazol-2-one], the Ki on aurora A was 500 nM. At GSK3β, the IC50 came to 3.2 nM.

As to `Cc1c(-c2ccnc(Nc3ccc(CNC(=O)c4ccccn4)cc3)n2)sc(=O)n1C` [Compound 82, Pyridine-2-carboxylic acid 4-[4-(3,4-dimethyl-2-oxo-2,3-dihydro-thiazol-5-yl)-pyrimidin-2-ylamino]-benzylamide], at aurora A, the Ki is 63 nM. Further, at GSK3β, the IC50 was 28.1 nM.

Regarding `Cc1ccc(Nc2nccc(-c3sc(=O)n(C)c3C)n2)cc1S(=O)(=O)N1CCOCC1` [Compound 78, 3,4-Dimethyl-5-{2-[4-methyl-3-(morpholine-4-sulfonyl)-phenylamino]-pyrimidin-4-yl}-3H-thiazol-2-one], the Ki on aurora A is 1100 nM; at CDK2/cyclin E, 2100 nM; on CDK7/cyclin H it was 1200 nM; at CDK9/cyclin T1, 27 nM. The IC50 at GSK3β amounted to 130 nM.

As for `Cc1c(-c2ccnc(Nc3ccc(CN)cc3)n2)sc(=O)n1C` [Compound 80, 5-[2-(4-Aminomethyl-phenylamino)-pyrimidin-4-yl]-3,4-dimethyl-3H-thiazol-2-one], on aurora A, the Ki was 380 nM. On GSK3β, the IC50 was determined as 69.8 nM.

For the compound `COCCNS(=O)(=O)c1ccc(Nc2nccc(-c3sc(=O)n(C)c3C)n2)cc1` [Compound 65, 4-[4-(3,4-Dimethyl-2-oxo-2,3-dihydro-thiazol-5-yl)-pyrimidin-2-ylamino]-N-(2-methoxy-ethyl)-benzenesulfonamide], the Ki is 4.1 nM at CDK1/cyclin B, 530 nM at aurora A, 940 nM on CDK7/cyclin H and 14 nM on CDK9/cyclin T1. Besides, the IC50 at GSK3β came out at 9 nM.

Take `CCn1c(C)c(-c2ccnc(Nc3ccc(N4CCOCC4)cc3)n2)sc1=O` [Compound 27, 3-Ethyl-4-methyl-5-[2-(4-morpholin-4-yl-phenylamino)-pyrimidin-4-yl]-3H-thiazol-2-one]: the Ki on aurora A is 33 nM; at CDK2/cyclin E it was 500 nM; at CDK4/cyclin D1 it was 3300 nM; at CDK2/cyclin A, 2000 nM; at CDK7/cyclin H, 1600 nM; at CDK9/cyclin T1, 690 nM.

For the compound `CCn1c(C)c(-c2ccnc(Nc3ccc(Cl)cc3)n2)sc1=O` [Compound 46, 5-[2-(4-Chloro-phenylamino)-pyrimidin-4-yl]-3-ethyl-4-methyl-3H-thiazol-2-one], the Ki at aurora A was 1100 nM; at CDK2/cyclin E it was 570 nM; on CDK2/cyclin A, 400 nM; on CDK7/cyclin H it was 790 nM; at CDK9/cyclin T1, 57 nM. The IC50 at GSK3β was determined as 101 nM.

For `Cc1c(-c2ccnc(Nc3cccc(S(=O)(=O)N4CCOCC4)c3)n2)sc(=O)n1C` [Compound 79, 3,4-Dimethyl-5-{2-[3-(morpholine-4-sulfonyl)-phenylamino]-pyrimidin-4-yl}-3H-thiazol-2-one], the Ki on aurora A was 1400 nM; on CDK2/cyclin E it was 1500 nM; on CDK7/cyclin H it was 2600 nM. Further, at GSK3β, the IC50 was found to be 35.6 nM.

With `COc1ccc(C)c(Nc2nccc(-c3sc(=O)n(C)c3C)n2)c1` [Compound 56, 5-[2-(5-Methoxy-2-methyl-phenylamino)-pyrimidin-4-yl]-3,4-dimethyl-3H-thiazol-2-one], the Ki at aurora A is 2600 nM; at CDK7/cyclin H, 2900 nM; on CDK9/cyclin T1 it was 460 nM. In addition, the IC50 on GSK3β stood at 3500 nM.

As to `Cc1c(-c2ccnc(Nc3cccc(S(=O)(=O)NC(C)C)c3)n2)sc(=O)n1C` [Compound 74, 3-[4-(3,4-Dimethyl-2-oxo-2,3-dihydro-thiazol-5-yl)-pyrimidin-2-ylamino]-N-isopropyl-benzenesulfonamide], the Ki at aurora A was 870 nM; at CDK2/cyclin E, 1400 nM; at CDK4/cyclin D1, 980 nM; at CDK7/cyclin H, 2700 nM; on CDK9/cyclin T1, 50 nM. Besides, the IC50 at GSK3β was 75 nM.

As for `Cc1c(-c2ccnc(Nc3cccc([N+](=O)[O-])c3)n2)sc(=O)n1C` [Compound 1, 3,4-Dimethyl-5-[2-(3-nitro-phenylamino)-pyrimidin-4-yl]-3H-thiazol-2-one], the Ki on CDK1/cyclin B is 1000 nM; at aurora A, 700 nM; on CDK2/cyclin E it was 10 nM; on CDK4/cyclin D1, 300 nM; on CDK2/cyclin A it was 170 nM; at CDK7/cyclin H, 2.8 nM. Moreover, the Ki on CDK9/cyclin T1 is 0.3 nM.

Turning to `Cc1c(-c2ccnc(Nc3cc(N)cc(C(F)(F)F)c3)n2)sc(=O)n1C` [Compound 71, 5-[2-(3-Amino-5-trifluoromethyl-phenylamino)-pyrimidin-4-yl]-3,4-dimethyl-3H-thiazol-2-one], the Ki was 140 nM at CDK1/cyclin B; 110 nM at aurora A; 170 nM at CDK4/cyclin D1; 280 nM on CDK2/cyclin A; 73 nM on CDK7/cyclin H. Also, the IC50 on GSK3β turned out to be 5.3 nM.
